Source: patent US12281122B1, “PI3K inhibitors” (Cogent Biosciences, Inc., priority 2023, dated 2025)

Key:
[1] = tested on: T47D (PI3Kα-H1047R) cell line; assay: HTRF phospho-AKT(S473) cell assay in T47D cells; type: cell-based, human
Protocol: (§1) Compounds in the present disclosure were tested in a cell based HTRF phospho-AKT(S473) (CisBio/Revvity) assay in human breast cancer cell lines as a measurement of PIK3CA activity through measuring AKT, a downstream effector. The activity of mutant PI3Kα-H1047R and PI3Kα-Wild Type was measured in the T47D (PI3Kα-H1047R) and SKBR3 (PI3Kα-Wild Type) cell lines, respectively. T47D cells were plated at 20,000 cells per well in 50 μL in RPMI medium supplemented with 10% FBS and 0.2 units/mL insulin, in 384 well plates. SKBR3 cells were plated at 25,000 cells per well in 50 μL in McCoy's 5A medium supplemented with 10% FBS, in 384 well plates. Cells were plated using a Combi Multidrop reagent dispenser (ThermoFisher), and placed in 5% CO2, 37° C. incubator overnight to adhere.
(§2) The next day, cells were treated with either compounds or vehicle (DMSO) in a 12-fold dose response curve of 1:3 dilutions, with 5 μM and 10 μM as the top concentrations for the T47D and SKBR3 cell lines, respectively. Compound treatment was facilitated via the D300e digital dispenser (Tecan), with a maximum DMSO concentration of 0.5%. Following compound addition, cell plates were incubated for 2 hours in 5% CO2, 37° C. incubator. The SKBR3 cells were stimulated and treated with 70 ng/ml PDGF-BB ligand (ThermoFisher) for the remaining 15 minutes of the incubation. Following compound incubation, compound and media was aspirated from the cells and 25 μL of supplemented lysis buffer was added per well, and incubated for 45 minutes at room temperature, shaking at 600 rpm. Next, 16 μL of cell lysate was added to a 384 well low volume ProxyPlate (Perkin Elmer/Revvity) mixed with 4 μL of HTRF antibodies (1:1 Eu Cryptate+d2 Cryptate). HTRF supplemented lysis buffer and antibody reagents were used from the phosphor-AKT(S473) HTRF assay kit (CisBio/Revvity), following manufacturers protocol recommendations. Plates were sealed and incubated at 4° C. overnight.
(§3) The following day, plates were centrifuged for 1 minute at 1000 rpm, and read on a PHERAstar plate reader. IC50 values were calculated using Spotfire software.

[2] = tested on: SKBR3 (PI3Kα-Wild Type) cell line; assay: HTRF phospho-AKT(S473) cell assay in SKBR3 cells; type: cell-based, human
Protocol: as §1, §2, §3

[3] = Homo sapiens; T47D (PI3Kα-H1047R) cells, HTRF phospho-AKT(S473), 2 hours compound incubation
[4] = Homo sapiens, SK-BR-3; SKBR3 (PI3Kα-Wild Type) cells, HTRF phospho-AKT(S473), 2 hours compound incubation, PDGF-BB stimulated
[5] = Homo sapiens; HTRF phospho-AKT(S473), T47D (PI3Kα-H1047R) cells, 2 hours compound incubation
[6] = Homo sapiens, SK-BR-3; HTRF phospho-AKT(S473), SKBR3 (PI3Kα-Wild Type) cells, 2 hours compound incubation, PDGF-BB stimulated

Row | SMILES | IC50 [1, 3] | IC50 [2, 4] | IC50 [1, 5] | IC50 [2, 6] | IC50 ([1]; HTRF phospho-AKT(S473), T47D (PI3Kα-H1047R) cells, 2 hours compound incubation)
1 | Cc1cc([C@@H](C)Nc2ccc(Cl)nc2C(=O)NS(C)(=O)=O)c2nc(N3Cc4cnn(-c5ccc(C#N)cc5)c4C3)n(C)c(=O)c2c1 [Compound 240, (R)-6-chloro-3-((1-(2-(1-(4-cyanophenyl)-4,6-dihydropyrrolo[3,4-c]pyrazol-5(1H)-yl)-3,6-dimethyl-4-oxo-3,4-dihydroquinazolin-8-yl)ethyl)amino)-N-(methylsulfonyl) picolinamide] | < 0.25 µM | 1 to 5 µM | – | – | –
2 | CC(=O)N1CC2CCC(C1)N2c1ccc(-c2nc3c([C@@H](C)Nc4ccc(Cl)nc4C(=O)NS(C)(=O)=O)cc(C)cc3c(=O)n2C)cc1F [Compound 801, 3-(((1R)-1-(2-(4-(3-acetyl-3,8-diazabicyclo[3.2.1]octan-8-yl)-3-fluorophenyl)-3,6-dimethyl-4-oxo-3,4-dihydroquinazolin-8-yl)ethyl)amino)-6-chloro-N-(methylsulfonyl) picolinamide] | – | – | < 0.25 µM | ≥ 5 µM | –
3 | Cc1cc([C@@H](C)Nc2ccc(Cl)nc2C(=O)NS(C)(=O)=O)c2nc(N3C[C@@H]4[C@H](C3)[C@H]4c3cc4cccnn4n3)n(C)c(=O)c2c1 [Compound 620, 6-chloro-3-(((R)-1-(3,6-dimethyl-4-oxo-2-((1R,5S,6R)-6-(pyrazolo[1,5-b]pyridazin-2-yl)-3-azabicyclo[3.1.0]hexan-3-yl)-3,4-dihydroquinazolin-8-yl)ethyl)amino)-N-(methylsulfonyl) picolinamide] | – | – | < 0.25 µM | 1 to 5 µM | –
4 | Cc1cc([C@@H](C)Nc2ccc(Cl)nc2C(=O)NS(C)(=O)=O)c2nc(N3C[C@@H]4[C@H](C3)[C@H]4c3nnc(C)n3C(F)F)n(C)c(=O)c2c1 [Compound 644, 6-chloro-3-(((R)-1-(2-((1R,5S,6R)-6-(4-(difluoromethyl)-5-methyl-4H-1,2,4-triazol-3-yl)-3-azabicyclo[3.1.0]hexan-3-yl)-3,6-dimethyl-4-oxo-3,4-dihydroquinazolin-8-yl)ethyl)amino)-N-(methylsulfonyl) picolinamide] | – | – | 0.25 to 0.5 µM | ≥ 5 µM | –
5 | Cc1cc([C@@H](C)Nc2ccc(Cl)nc2C(=O)NS(C)(=O)=O)c2nc(N3C[C@@H]4[C@H](C3)[C@H]4c3cc(C)ncc3F)n(C)c(=O)c2c1 [Compound 495, 6-chloro-3-(((R)-1-(2-((1R,5S,6S)-6-(5-fluoro-2-methylpyridin-4-yl)-3-azabicyclo[3.1.0]hexan-3-yl)-3,6-dimethyl-4-oxo-3,4-dihydroquinazolin-8-yl)ethyl)amino)-N-(methylsulfonyl) picolinamide] | – | – | 0.25 to 0.5 µM | 1 to 5 µM | –
6 | Cc1cc([C@@H](C)Nc2ccc(Cl)nc2C(=O)NS(C)(=O)=O)c2nc(N3CCC(c4ccn[nH]4)CC3)n(C)c(=O)c2c1 [Compound 165, (R)-3-((1-(2-(4-(1H-pyrazol-5-yl)piperidin-1-yl)-3,6-dimethyl-4-oxo-3,4-dihydroquinazolin-8-yl)ethyl)amino)-6-chloro-N-(methylsulfonyl) picolinamide] | < 0.25 µM | 1 to 5 µM | – | – | –
7 | Cc1cc([C@@H](C)Nc2ccc(Cl)nc2C(=O)NS(C)(=O)=O)c2nc(N3CCN(c4cnn(C)c4)CC3)n(C)c(=O)c2c1 [Compound 188, (R)-6-chloro-3-((1-(3,6-dimethyl-2-(4-(1-methyl-1H-pyrazol-4-yl)piperazin-1-yl)-4-oxo-3,4-dihydroquinazolin-8-yl)ethyl)amino)-N-(methylsulfonyl) picolinamide] | < 0.25 µM | 1 to 5 µM | – | – | –
8 | Cc1cc([C@@H](C)Nc2ccc(Cl)nc2C(=O)NS(C)(=O)=O)c2nc(N3CCC(c4ncn(C(C)C)n4)CC3)n(C)c(=O)c2c1 [Compound 550, (R)-6-chloro-3-((1-(2-(4-(1-isopropyl-1H-1,2,4-triazol-3-yl)piperidin-1-yl)-3,6-dimethyl-4-oxo-3,4-dihydroquinazolin-8-yl)ethyl)amino)-N-(methylsulfonyl) picolinamide] | – | – | 0.25 to 0.5 µM | ≥ 5 µM | –
9 | Cc1cc([C@@H](C)Nc2ccc(Cl)nc2C(=O)NS(=O)(=O)NC2CC2)c2nc(N3Cc4ccc(F)cc4C3)n(C)c(=O)c2c1 [Compound 152, (R)-6-chloro-N-(N-cyclopropylsulfamoyl)-3-((1-(2-(5-fluoroisoindolin-2-yl)-3,6-dimethyl-4-oxo-3,4-dihydroquinazolin-8-yl)ethyl)amino)picolinamide] | 0.25 to 0.5 µM | ≥ 5 µM | – | – | –
10 | Cc1cc([C@@H](C)Nc2ccc(Cl)nc2C(=O)NS(C)(=O)=O)c2nc(N3C[C@@H]4[C@H](C3)[C@H]4c3ccc(C#N)cn3)n(C)c(=O)c2c1 [Compound 392, 6-chloro-3-(((R)-1-(2-((1R,5S,6R)-6-(5-cyanopyridin-2-yl)-3-azabicyclo[3.1.0]hexan-3-yl)-3,6-dimethyl-4-oxo-3,4-dihydroquinazolin-8-yl)ethyl)amino)-N-(methylsulfonyl) picolinamide] | 0.25 to 0.5 µM | 1 to 5 µM | – | – | –
11 | Cc1cc([C@@H](C)Nc2ccc(Cl)nc2C(=O)NS(C)(=O)=O)c2nc(N3CCC(c4ccc[nH]c4=O)CC3)n(C)c(=O)c2c1 [Compound 706, (R)-6-chloro-3-((1-(3,6-dimethyl-4-oxo-2-(4-(2-oxo-1,2-dihydropyridin-3-yl)piperidin-1-yl)-3,4-dihydroquinazolin-8-yl)ethyl)amino)-N-(methylsulfonyl) picolinamide] | – | – | 0.5 to 1 µM | ≥ 5 µM | –
12 | C[C@@H](Nc1ccc(Cl)nc1C(=O)NS(C)(=O)=O)c1cc(Cl)cc2c(=O)n(C)c(N3C[C@@H]4[C@H](C3)[C@H]4c3ccn(C)n3)nc12 [Compound 451, 6-chloro-3-(((R)-1-(6-chloro-3-methyl-2-((1R,5S,6R)-6-(1-methyl-1H-pyrazol-3-yl)-3-azabicyclo[3.1.0]hexan-3-yl)-4-oxo-3,4-dihydroquinazolin-8-yl)ethyl)amino)-N-(methylsulfonyl) picolinamide] | – | – | < 0.25 µM | 1 to 5 µM | –
13 | Cc1cc([C@@H](C)Nc2ccc(Cl)nc2C(=O)NS(C)(=O)=O)c2nc(N3CCC(n4nncc4C)CC3)n(C)c(=O)c2c1 [Compound 626, (R)-6-chloro-3-((1-(3,6-dimethyl-2-(4-(5-methyl-1H-1,2,3-triazol-1-yl)piperidin-1-yl)-4-oxo-3,4-dihydroquinazolin-8-yl)ethyl)amino)-N-(methylsulfonyl) picolinamide] | – | – | 0.25 to 0.5 µM | 1 to 5 µM | –
14 | Cc1cc([C@@H](C)Nc2ccc(Cl)nc2C(=O)NS(C)(=O)=O)c2nc(-c3ccc(Nc4ccccc4C)nc3)n(C)c(=O)c2c1 [Compound 283, (R)-6-chloro-3-((1-(3,6-dimethyl-4-oxo-2-(6-(o-tolylamino)pyridin-3-yl)-3,4-dihydroquinazolin-8-yl)ethyl)amino)-N-(methylsulfonyl) picolinamide] | < 0.25 µM | ≥ 5 µM | – | – | –
15 | COc1cc(C2CCN(c3nc4c([C@@H](C)Nc5ccc(Cl)nc5C(=O)NS(C)(=O)=O)cc(C)cc4c(=O)n3C)CC2)n(C)n1 [Compound 325, (R)-6-chloro-3-((1-(2-(4-(3-methoxy-1-methyl-1H-pyrazol-5-yl)piperidin-1-yl)-3,6-dimethyl-4-oxo-3,4-dihydroquinazolin-8-yl)ethyl)amino)-N-(methylsulfonyl) picolinamide] | < 0.25 µM | 1 to 5 µM | – | – | –
16 | Cc1cc([C@@H](C)Nc2ccc(Cl)nc2C(=O)NS(C)(=O)=O)c2nc(N3CCC[C@@H](c4cnn(C)c4)C3)n(C)c(=O)c2c1 (relative stereo) [Compound 202, 6-chloro-3-(((R)-1-(3,6-dimethyl-2-((R*)-3-(1-methyl-1H-pyrazol-4-yl)piperidin-1-yl)-4-oxo-3,4-dihydroquinazolin-8-yl)ethyl)amino)-N-(methylsulfonyl) picolinamide] | < 0.25 µM | 1 to 5 µM | – | – | –
17 | Cc1cc([C@@H](C)Nc2ccc(Cl)nc2C(=O)NS(C)(=O)=O)c2nc(N3C[C@@H]4C[C@H]3C[C@@H]4c3nn(C)cc3F)n(C)c(=O)c2c1 (relative stereo) [Compound 760, 6-chloro-3-(((R)-1-(2-((1R*,4S*,5R*)-5-(4-fluoro-1-methyl-1H-pyrazol-3-yl)-2-azabicyclo[2.2.1]heptan-2-yl)-3,6-dimethyl-4-oxo-3,4-dihydroquinazolin-8-yl)ethyl)amino)-N-(methylsulfonyl) picolinamide] | – | – | – | – | 0.25 to 0.5 µM
